Assay results reported in PMC5487684, “Safety, Pharmacokinetics, and Antiviral Activity of a Novel HIV Antiviral, ABX464, in Treatment-Naive HIV-Infected Subjects in a Phase 2 Randomized, Controlled Study” (Antimicrobial Agents and Chemotherapy, 2017).

Assays:
[1] = Plasma pharmacokinetics of ABX464 and ABX464-NGlc in HIV-infected subjects; type: in vivo, human
Experimental: Plasma samples were analyzed for ABX464 and ABX464-NGlc using validated bioanalytical methods by Atlanbio (Saint Nazaire, France) according to good laboratory practices. Pharmacokinetic parameters were calculated by noncompartmental analysis (NCA), using Phoenix WinNonlin software (Pharsight Corporation) running on a personal computer. On day 1, the following PK parameters were generated: Cmax, the time to Cmax (Tmax), lag time (tlag), elimination rate constant (kel), area under the concentration-time curve (AUC) from time zero to time t (AUC0–t), AUC from time zero to infinity (AUC0–∞), apparent clearance (CL/F), and apparent volume of distribution (V/F). On the other days of PK assessment, only Cmax, Tmax, tlag, kel, and AUC0–t were generated. The secondary analysis concerned pharmacodynamic (PD) activity, as expressed by CD4 and CD8 levels and viral load across time. The HIV viral load was analyzed in the prequalified individual local study center laboratories. CD4 and CD8 cell counts were also determined in the local study center laboratories. With respect to the viral load, changes in the log-transformed viral load values between 24 h postdose and predose were calculated on each day, and a comparison between each dose level and pooled placebo data was made. Moreover, the rate of success (defined as a decrease in the viral load value of at least 0.5 log) was evaluated for each treatment (including placebo) and compared between treatments.

HIV replication in PBMCs = tested on: HIV replication in PBMCs; set-up: method as in PMID 25889234; conditions: in vitro; cited from earlier work
[2] = tested on: HIV replication in macrophages; set-up: method as in PMID 25889234; conditions: in vitro; cited from earlier work
HIV-1 = conditions: cited from earlier work

Row | half-life (t1/2) ([1]; HIV-infected subjects, oral) | Bioavailability of ABX464-NGlc in human subjects relative to mice ([1]; human, in vivo) | Cmax of the metabolite relative to that of the parent compound ([1]; plasma) | SMILES | Antiviral effect on HIV replication in PBMCs (HIV replication in PBMCs) | 50% inhibitory concentration in macrophage culture relative to parent drug [2] | Inhibition of HIV replication in macrophage culture [2] | Decrease in mean total HIV-1 DNA copy number in monocytes (HIV-1; 10 days of treatment) [fold] | Reduction in mean total HIV-1 DNA copy number in monocytes (HIV-1; 10 days of treatment) [%] | Effect on HIV viral load in plasma or CD4 T cell count (HIV-1) | Treated individuals with significant reductions in total HIV-1 DNA levels within monocytes (HIV-1)
1 | about 100 h | approximately 15 fold | approximately 160 fold | O=C(O)[C@H]1O[C@@H](N(c2ccc(OC(F)(F)F)cc2)c2ccc3cccc(Cl)c3n2)[C@H](O)[C@@H](O)[C@@H]1O [ABX464-NGlc, ABX464-N-glucuronide] | no antiviral effect | same 50% inhibitory concentration as the parent drug | able to inhibit HIV replication |  |  |  | 
2 |  |  |  | Cn1cc(-c2cccc3cc(C(=O)N=C(N)N)ccc23)cn1 |  |  |  | 2.7 | 63 | no significant effect | three of the six
